Data reported in patent US10342812B2, “Glycan-based drugs, therapies and biomarkers” (priority 2008, dated 2019).

Experiments:
[1] = test system: 2009H1N1 influenza virus (California strain); format: in vivo, chicken
rhesus rotavirus (RRV) [2] = assay: Prevention of rotavirus infection in mouse pups with methionine-Zn (8.1); format: in vivo
[3] = test system: A/PR/8/34(H1N1) influenza virus strain; assay: Treatment of influenza infection of newborn mice (15.2); format: in vivo, mouse; conditions: virus at P5, i.p. treatment at day 2, 3, 4 and 5; kept 10 days
Description: Four groups of newborn bulb/c pups were inoculated at day 5 (P5) via nasal and oral administration of 20 μl (microliter) of the A/PR/8/34(H1N1) influenza virus strain (titer: 1:256, diluted 200 times with saline); and were treated at day 2, 3, 4 and 5 via intraperitoneal injection with 100 μl of saline containing 1) saline alone (n=10); 2) 150 microgram of Neu5AcMe; 3) 30 μl of 2% diethyl disulfide plus 200 μg of the Neu5AcMe (n=10); and 4) 30 μl of 2% diethyl disulfide plus 200 μg of the Neu5Ac (n=10). Mice were kept for 10 days after treatment.

rhesus rotavirus (RRV) [4] = assay: Prevention of rotavirus infection in mouse pups with Neu5Ac, methionine, formula-1 (5.7); format: in vivo; conditions: for Not sick (number) / Sick Rate(%): 20 μl oral at P1, RRV at P2; for Sick (number): 20 μl oral at P1, RRV at P2, 3 weeks; for Odds Ratio: vs saline
[5] = format: in vivo, chicken
[6] = pretreated at E16, virus next day

## CCSSCC [Diethyl disulfide]
[1]; [6]
  Not sick (number): 5
  Sick (number): 1
  Sick Rate(%): 17%
[1]; vs saline
  Odds Ratio: 0.04

## Methionine-Zinc (Zn) complex [Metnionine-Zn]
Rhesus rotavirus (RRV) [2]; 20 μl oral at P1, RRV at P2
  Not sick (number): 6
  Sick Rate(%): 14%
Rhesus rotavirus (RRV) [2]; 20 μl oral at P1, RRV at P2, 3 weeks
  Sick (number): 1
Rhesus rotavirus (RRV) [2]; vs saline
  Odds Ratio: 0.03

## COC(=O)[C@]1(O)CC(O)[C@@H](NC(C)=O)C(C(O)[C@H](O)CO)O1 (some centres unmarked) [Neu5AcMe, N-Acetylneuraminic acid methyl ester]
[3]
  pups survived: 50%

## CSCC[C@H](N)C(=O)O [Metnionine, Methionine]
Rhesus rotavirus (RRV) [4]
  Not sick (number): 9
  Sick Rate(%): 25.0%
  Sick (number): 3
  Odds Ratio: 0.07

## CC(=O)N[C@H]1[C@H]([C@H](O)[C@H](O)CO)OC(O)(C(=O)O)C[C@@H]1O (some centres unmarked) [Neu5Ac, N-Acetylneuraminic acid]
Rhesus rotavirus (RRV) [4]
  Not sick (number): 10
  Sick Rate(%): 23.1%
  Sick (number): 3
  Odds Ratio: 0.07
[5]; day 3, saline 87.5%
  side effect of the H5N1 vaccine candidate (still sick): 12.5%
[5]; in vivo
  Odd Ratio: 0.02
[5]; in vivo, po
  sick chickens recovered and looked normal: 7/8
